Test results reported in the supplement of paper PMC10307832.

Legend:
Assay in all cases: relative viability (nuclei count vs DMSO), 5 days (fraction); higher = more cells survive
Carfilzomib + Pictilisib = compound: CC(C)C[C@H](NC(=O)[C@H](CCc1ccccc1)NC(=O)CN1CCOCC1)C(=O)N[C@@H](Cc1ccccc1)C(=O)N[C@@H](CC(C)C)C(=O)[C@@]1(C)CO1 [Carfilzomib] + CS(=O)(=O)N1CCN(Cc2cc3nc(-c4cccc5[nH]ncc45)nc(N4CCOCC4)c3s2)CC1 [Pictilisib] (partner 1 µM)
Summary of the method: (§1)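 Lung cancer cell lines were seeded in 1536-well plates and dosed by pin tool the next day, with either a single drug or a fixed anchor-drug dose combined with five library-drug doses (not always all listed) spaced in √10 steps. Five days later, one step fixed the cells and stained their nuclei (final 0.05% Triton X-100, 1% formaldehyde, 1 ug/ml Hoechst), and nuclei were counted on 4× images. Relative viability is the nuclei count in treated wells divided by the count in vehicle wells, and each value is the median of duplicate plates.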

Crizotinib + Vorinostat = compound: C[C@@H](Oc1cc(-c2cnn(C3CCNCC3)c2)cnc1N)c1c(Cl)ccc(F)c1Cl [Crizotinib] + O=C(CCCCCCC(=O)Nc1ccccc1)NO [Vorinostat] (partner 1 µM)
Summary of the method: as §1

Carfilzomib + Olaparib = compound: CC(C)C[C@H](NC(=O)[C@H](CCc1ccccc1)NC(=O)CN1CCOCC1)C(=O)N[C@@H](Cc1ccccc1)C(=O)N[C@@H](CC(C)C)C(=O)[C@@]1(C)CO1 [Carfilzomib] + O=C(c1cc(Cc2n[nH]c(=O)c3ccccc23)ccc1F)N1CCN(C(=O)C2CC2)CC1 [Olaparib] (partner 8 µM)
Summary of the method: as §1

Crizotinib + Foretinib = compound: C[C@@H](Oc1cc(-c2cnn(C3CCNCC3)c2)cnc1N)c1c(Cl)ccc(F)c1Cl [Crizotinib] + COc1cc2c(Oc3ccc(NC(=O)C4(C(=O)Nc5ccc(F)cc5)CC4)cc3F)ccnc2cc1OCCCN1CCOCC1 [Foretinib] (partner 0.25 µM)
Summary of the method: as §1

| Cell Line | relative viability (Carfilzomib + Pictilisib; first compound 0.001 µM) | relative viability (Carfilzomib + Pictilisib; first compound 0.003162 µM) | relative viability (Carfilzomib + Pictilisib; first compound 0.01 µM) | relative viability (Carfilzomib + Pictilisib; first compound 0.03162 µM) | relative viability (Carfilzomib + Pictilisib; first compound 0.1 µM) | relative viability (Crizotinib + Vorinostat; first compound 0.01 µM) | relative viability (Crizotinib + Vorinostat; first compound 0.03162 µM) | relative viability (Crizotinib + Vorinostat; first compound 0.1 µM) | relative viability (Crizotinib + Vorinostat; first compound 0.3162 µM) | relative viability (Crizotinib + Vorinostat; first compound 1 µM) | relative viability (Carfilzomib + Olaparib; first compound 0.001 µM) | relative viability (Carfilzomib + Olaparib; first compound 0.003162 µM) | relative viability (Carfilzomib + Olaparib; first compound 0.01 µM) | relative viability (Carfilzomib + Olaparib; first compound 0.03162 µM) | relative viability (Carfilzomib + Olaparib; first compound 0.1 µM) | relative viability (Crizotinib + Foretinib; first compound 0.03162 µM) | relative viability (Crizotinib + Foretinib; first compound 0.1 µM) | relative viability (Crizotinib + Foretinib; first compound 1 µM) | relative viability (Crizotinib + Foretinib; first compound 0.01 µM) | relative viability (Crizotinib + Foretinib; first compound 0.3162 µM) |
| --- | --- | --- | --- | --- | --- | --- | --- | --- | --- | --- | --- | --- | --- | --- | --- | --- | --- | --- | --- | --- |
| NCI-H727 | 0.32 | 0.43 | 0.418 | 0.215 | 0.148 | 1.16 | 1.1 | 1.3 | 1.16 | 1.37 | 0.705 | 0.751 | 0.859 | 0.62 | 0.242 | 1.24 | 0.957 | 1.22 | – | – |
| NCI-H838 | 0.487 | 0.525 | 0.449 | 0.615 | 0.144 | 0.715 | – | 0.728 | 0.687 | 0.701 | 0.79 | 0.799 | 0.785 | 0.126 | 0.109 | 1.04 | 1.01 | 1.02 | 0.961 | 0.994 |
| NCI-H1355 | 0.404 | 0.6 | 0.396 | 0.219 | 0.145 | 0.638 | 0.629 | 0.625 | 0.564 | 0.613 | 0.732 | 0.777 | 0.754 | 0.62 | 0.118 | 0.81 | 0.922 | 0.959 | 0.935 | 0.916 |
| NCI-H1395 | 0.564 | 0.644 | 0.593 | 0.479 | 0.525 | 0.602 | 0.827 | 0.794 | 0.53 | 0.554 | – | 0.516 | 0.428 | 0.356 | 0.303 | 0.937 | – | 0.959 | 0.827 | 0.941 |
| NCI-H1437 | 0.313 | 0.463 | 0.41 | 0.322 | 0.0975 | 0.832 | 0.832 | 0.857 | 0.867 | 0.849 | 0.629 | 0.666 | 0.645 | 0.419 | 0.171 | 1.22 | 1.25 | 1.32 | 1.14 | 1.27 |
| NCI-H1650 | – | 0.685 | 0.284 | 0.127 | 0.151 | 0.471 | 0.594 | 0.527 | 0.68 | 0.619 | 0.811 | 0.855 | 0.723 | 0.111 | 0.137 | 1.1 | 0.949 | 1.43 | – | 1.07 |
| NCI-H1651 | 0.551 | 0.601 | 0.231 | 0.0999 | 0.0685 | 0.572 | 0.424 | 0.582 | 0.398 | 0.61 | 0.184 | 0.188 | 0.167 | 0.101 | 0.0957 | 0.725 | 0.843 | 0.902 | 0.615 | 0.864 |
| NCI-H1666 | 0.536 | 0.676 | 0.586 | 0.422 | 0.228 | 1.14 | 0.999 | 1.07 | 0.978 | 0.955 | 0.757 | 0.782 | 0.75 | 0.709 | 0.528 | 0.969 | 0.99 | 0.955 | 0.921 | 0.964 |
| NCI-H1734 | 0.476 | 0.501 | 0.389 | 0.234 | 0.127 | 0.866 | 0.787 | 0.784 | – | 0.807 | 0.649 | 0.679 | 0.666 | 0.547 | 0.113 | 0.847 | 0.753 | 0.805 | 0.811 | – |
| NCI-H1755 | 0.412 | 0.479 | 0.413 | 0.239 | 0.16 | 0.668 | 0.779 | 0.743 | 0.757 | 0.764 | 0.978 | 0.934 | 0.875 | 0.609 | 0.343 | 0.923 | 0.887 | 0.891 | 0.835 | 0.877 |
| NCI-H1915 | 0.973 | 1 | 0.8 | 0.572 | 0.123 | 0.601 | 0.518 | 0.502 | 0.458 | 0.517 | 0.292 | 0.265 | 0.248 | 0.247 | 0.058 | 1.1 | 1.07 | 1.08 | 1 | – |
| NCI-H1944 | 0.353 | 0.344 | 0.322 | 0.3 | 0.247 | 0.446 | 0.508 | 0.493 | 0.571 | 0.54 | 0.438 | 0.513 | 0.441 | 0.374 | 0.187 | 0.877 | 0.847 | 0.862 | 0.823 | 0.884 |
| NCI-H1975 | 0.284 | 0.301 | 0.219 | 0.0929 | 0.101 | 0.682 | 0.693 | 0.695 | 0.708 | 0.729 | 0.828 | 0.825 | 0.393 | 0.123 | 0.118 | 1.03 | 0.902 | 0.975 | 0.941 | 0.962 |
| NCI-H1993 | 0.756 | 0.771 | 0.717 | 0.648 | 0.61 | 0.699 | 0.901 | 0.68 | 0.468 | 0.555 | 0.984 | 1.11 | 1.1 | 1.04 | 0.407 | 0.9 | 0.741 | 0.82 | 0.848 | 0.827 |
| NCI-H2009 | 0.859 | 1.07 | 0.753 | 0.126 | 0.0415 | 0.707 | 0.723 | 0.63 | 0.756 | 0.76 | 0.736 | 0.732 | 0.729 | 0.631 | 0.0565 | 1.17 | 1.13 | 1.23 | 1.21 | 1.19 |
| NCI-H2023 | 0.213 | 0.257 | 0.263 | 0.156 | 0.0927 | 0.573 | 0.8 | 0.568 | 0.453 | 0.621 | 0.484 | 0.521 | 0.486 | 0.133 | 0.0615 | 0.799 | 0.787 | 0.939 | 0.745 | 0.848 |
